Data: patent publication US8324219B2, “Substituted benzoimidazolyl-pyrazine compounds for inflammation and immune-related uses” (Synta Pharmaceuticals Corp., priority 2007, dated 2012)
Structures can show the parent of a compound that is named as a salt.

Tested on: IL-2 production
Test: Inhibition of IL-2 production in PHA-activated Jurkat cells (ELISA)
Assay type: cell-based
Conditions: Homo sapiens, PHA 2.5 μg/mL
Protocol: Jurkat cells were placed in a 96 well plate (0.5 million cells per well in 1% FBS medium) then a test compound of this invention was added at different concentrations. After 10 minutes, the cells were activated with PHA (final concentration 2.5 μg/mL) and incubated for 20 hours at 37° C. under CO2. The final volume was 200 μL. Following incubation, the cells were centrifuged and the supernatants were collected and stored at −70° C. prior to assaying for IL-2 production. A commercial ELISA kit (IL-2 Eli-pair, Diaclone Research, Besancon, France) was used to detect production of IL-2, from which dose response curves were obtained. The IC50 value was calculated as the concentration at which 50% of maximum IL-2 production after stimulation was inhibited versus a non-stimulation control.

Row | Structure (SMILES) | IC50 (20 hours) [nM] | IC50 (Jurkat, 20 h) [nM]
1 | O=C(Nc1cnc(-n2c(C(F)(F)F)nc3cc(-c4nnco4)ccc32)cn1)c1c(F)cccc1F [Compound 8, 2,6-Difluoro-N-[5-(5-[1,3,4]oxadiazol-2-yl-2-trifluoromethyl-benzoimidazol-1-yl)-pyrazin-2-yl]-benzamide] | 39 | –
2 | O=C(Nc1cnc(-n2c(C(F)(F)F)nc3cc(O)ccc32)cn1)c1c(F)cccc1F [Compound 1, 2,6-Difluoro-N-[5-(5-hydroxy-2-trifluoromethyl-benzoimidazol-1-yl)-pyrazin-2-yl]-benzamide] | 34 | –
3 | O=C(Nc1cnc(-n2c(C(F)(F)F)nc3cc(O)ccc32)cn1)c1c(F)cccc1F [Compound 4, 2,6-Difluoro-N-[5-(5-hydroxy-2-trifluoromethyl-benzoimidazol-1-yl)-pyrazin-2-yl]-benzamide, sodium salt] | – | 14
4 | O=C(Nc1cnc(-n2c(C(F)(F)F)nc3cc([N+](=O)[O-])ccc32)cn1)c1c(F)cccc1F [Compound 2, 2,6-Difluoro-N-[5-(5-nitro-2-trifluoromethyl-benzoimidazol-1-yl)-pyrazin-2-yl]-benzamide] | 89 | –
5 | Cc1nnc(-c2ccc3c(c2)nc(C(F)(F)F)n3-c2cnc(NC(=O)c3c(F)cccc3F)cn2)o1 [Compound 9, 2,6-Difluoro-N-{5-[5-(5-methyl-[1,3,4]oxadiazol-2-yl)-2-trifluoromethyl-benzoimidazol-1-yl]-pyrazin-2-yl}-benzamide] | 84 | –

Further lines, with some results ahead:

Row | IC50 (20 hours) [nM] | Structure (SMILES) | IC50 (Jurkat, 20 h) [nM]
6 | 97 | Nc1ccc2c(c1)nc(C(F)(F)F)n2-c1cnc(NC(=O)c2c(F)cccc2F)cn1 [Compound 6, N-[5-(5-Amino-2-trifluoromethyl-benzoimidazol-1-yl)-pyrazin-2-yl]-2,6-difluoro-benzamide] | –
7 | 102 | COc1ccc2c(c1)nc(C)n2-c1cnc(NC(=O)c2c(F)cccc2F)cn1 [Compound 3, 2,6-Difluoro-N-[5-(5-methoxy-2-methyl-benzoimidazol-1-yl)-pyrazin-2-yl]-benzamide] | –
8 | 29 | CN(C)c1ccc2c(c1)nc(C(F)(F)F)n2-c1cnc(NC(=O)c2c(F)cccc2F)cn1 [Compound 5, N-[5-(5-Dimethylamino-2-trifluoromethyl-benzoimidazol-1-yl)-pyrazin-2-yl]-2,6-difluoro-benzamide] | –
